Results reported in ChEMBL document CHEMBL2434942, “β-Ionone derived chalcones as potent antiproliferative agents” (Eur J Med Chem, 2013).
Activity calls are given as the source filed them. The calls are words filed in the database; no cut-off is given here.

Legend:
[1] = Cytotoxicity against human Hep cells after 48 hrs by SRB assay; type: functional, cell-based
HeLa = assay: Cytotoxicity against human HeLa cells after 48 hrs by SRB assay; type: functional, cell-based
PC-3 = assay: Cytotoxicity against human PC3 cells after 48 hrs by SRB assay; type: functional, cell-based; settings: PC-3, 48 h
MCF7 = assay: Cytotoxicity against human MCF7 cells after 48 hrs by SRB assay; type: functional, cell-based; settings: MCF7, 48 h
IMR-32 = assay: Cytotoxicity against human IMR32 cells after 48 hrs by SRB assay; type: functional, cell-based; settings: IMR-32, 48 h
CHO [2] = assay: Induction of apoptosis in CHO cells assessed as necrotic cells at 10 uM after 12 hrs using Annexin V/PI staining by flow cytometry (reference value: 3%); type: functional, Cricetulus griseus
CHO [3] = assay: Cell cycle arrest in CHO cells assessed as accumulation at sub-G0 phase at 10 uM after 12 hrs using propidium iodide staining by FACS analysis (reference value: 19.8%); type: functional, Cricetulus griseus
CHO [4] = assay: Induction of apoptosis in CHO cells assessed as viable cells at 10 uM after 12 hrs using Annexin V/PI staining by flow cytometry (reference value: 91.8%); type: functional; settings: Cricetulus griseus, read-out: Activity
CHO [5] = assay: Induction of apoptosis in CHO cells assessed as early apoptotic cells at 10 uM after 12 hrs using Annexin V/PI staining by flow cytometry (reference value: 4.3%); type: functional, Cricetulus griseus
CHO [6] = assay: Induction of apoptosis in CHO cells assessed as late apoptotic cells at 10 uM after 12 hrs using Annexin V/PI staining by flow cytometry (reference value: 1%); type: functional, Cricetulus griseus
CHO [7] = assay: Cell cycle arrest in CHO cells assessed as accumulation at sub-G0 phase at 5 uM after 12 hrs using propidium iodide staining by FACS analysis (reference value: 19.8%); type: functional, Cricetulus griseus
CHO [8] = assay: Induction of apoptosis in CHO cells assessed as early apoptotic cells at 15 uM after 12 hrs using Annexin V/PI staining by flow cytometry (reference value: 4.3%); type: functional, Cricetulus griseus
CHO [9] = assay: Induction of apoptosis in CHO cells assessed as viable cells at 15 uM after 12 hrs using Annexin V/PI staining by flow cytometry (reference value: 91.8%); type: functional; settings: Cricetulus griseus, read-out: Activity
CHO [10] = assay: Induction of apoptosis in CHO cells assessed as late apoptotic cells at 5 uM after 12 hrs using Annexin V/PI staining by flow cytometry (reference value: 1%); type: functional, Cricetulus griseus
CHO [11] = assay: Induction of apoptosis in CHO cells assessed as cell shrinkage, membrane blebbing and formation of apoptotic body at 5 to 15 uM after 24 hrs by inverted light microscopic analysis; type: functional, cell-based; settings: Cricetulus griseus
CHO [12] = assay: Induction of apoptosis in CHO cells assessed as necrotic cells at 15 uM after 12 hrs using Annexin V/PI staining by flow cytometry (reference value: 3%); type: functional, Cricetulus griseus
CHO [13] = assay: Cell cycle arrest in CHO cells assessed as accumulation at sub-G0 phase at 15 uM after 12 hrs using propidium iodide staining by FACS analysis (reference value: 19.8%); type: functional, Cricetulus griseus
CHO [14] = assay: Induction of apoptosis in CHO cells assessed as late apoptotic cells at 15 uM after 12 hrs using Annexin V/PI staining by flow cytometry (reference value: 1%); type: functional, Cricetulus griseus
CHO [15] = assay: Induction of apoptosis in CHO cells assessed as cell shrinkage, membrane blebbing and formation of apoptotic body at 5 to 15 uM after 6 to 12 hrs by inverted light microscopic analysis; type: functional, cell-based; settings: Cricetulus griseus
CHO [16] = assay: Induction of apoptosis in CHO cells assessed as early apoptotic cells at 5 uM after 12 hrs using Annexin V/PI staining by flow cytometry (reference value: 4.3%); type: functional, Cricetulus griseus
CHO [17] = assay: Induction of apoptosis in CHO cells assessed as necrotic cells at 5 uM after 12 hrs using Annexin V/PI staining by flow cytometry (reference value: 3%); type: functional, Cricetulus griseus
CHO [18] = assay: Induction of apoptosis in CHO cells assessed as viable cells at 5 uM after 12 hrs using Annexin V/PI staining by flow cytometry (reference value: 91.8%); type: functional; settings: Cricetulus griseus, read-out: Activity
CHO [19] = assay: Cytotoxicity against CHO cells after 48 hrs by SRB assay; type: functional, cell-based; settings: Cricetulus griseus

## CC1=C(/C=C/C(=O)/C=C/c2ccc(F)cc2)C(C)(C)CCC1
[1]
  IC50: 55.8 µM
HeLa
  IC50: 32.2 µM
PC-3
  IC50: 8.2 µM
MCF7
  IC50: 6.2 µM
IMR-32
  IC50: 7.4 µM

## CC1=C(/C=C/C(=O)/C=C/c2ccccc2)C(C)(C)CCC1
[1]
  IC50: 62.2 µM
HeLa
  IC50: 70.2 µM
PC-3
  IC50: 12.4 µM
MCF7
  IC50: 10.6 µM
IMR-32
  IC50: 20.4 µM

## CC1=C(/C=C/C(=O)/C=C/C=C/c2ccccc2)C(C)(C)CCC1
[1]
  IC50: > 100 µM
HeLa
  IC50: > 100 µM
PC-3
  IC50: 35.4 µM
MCF7
  IC50: 46.7 µM
IMR-32
  IC50: 23.4 µM

## COc1cc(/C=C/C(=O)/C=C/C2=C(C)CCCC2(C)C)cc(OC)c1OC
[1]
  IC50: 45.5 µM
HeLa
  IC50: 73.2 µM
PC-3
  IC50: 32.6 µM
MCF7
  IC50: 18.7 µM
IMR-32
  IC50: 55.5 µM

## CC(=O)O[C@H]1C(=O)[C@@]2(C)[C@H]([C@H](OC(=O)c3ccccc3)[C@]3(O)C[C@H](OC(=O)[C@H](O)[C@@H](NC(=O)c4ccccc4)c4ccccc4)C(C)=C1C3(C)C)[C@]1(OC(C)=O)CO[C@@H]1C[C@@H]2O [PACLITAXEL]
PC-3
  IC50: 1.5 µM
MCF7
  IC50: 0.5 µM

## COc1ccc(/C=C/C(=O)/C=C/C2=C(C)CCCC2(C)C)cc1OC
[1]
  IC50: 72.4 µM
HeLa
  IC50: 85 µM
PC-3
  IC50: 30.2 µM
MCF7
  IC50: 35.6 µM
IMR-32
  IC50: 29.2 µM

## COc1ccc(/C=C/C(=O)/C=C/C2=C(C)CCCC2(C)C)cc1
[1]
  IC50: > 100 µM
HeLa
  IC50: 15.7 µM
PC-3
  IC50: 58.7 µM
MCF7
  IC50: 19.6 µM
IMR-32
  IC50: 23.9 µM

## CC1=C(/C=C/C(=O)/C=C/c2ccc(Cl)cc2)C(C)(C)CCC1
[1]
  IC50: 90.6 µM
HeLa
  IC50: 33.2 µM
PC-3
  IC50: 9.5 µM
MCF7
  IC50: 10.2 µM
IMR-32
  IC50: 52.3 µM

## CC1=C(/C=C/C(=O)/C=C/c2ccccc2F)C(C)(C)CCC1
[1]
  IC50: 23.6 µM
HeLa
  IC50: 41.9 µM
PC-3
  IC50: 3.4 µM
MCF7
  IC50: 11 µM
IMR-32
  IC50: 15.6 µM

## COc1ccccc1/C=C/C=C/C(=O)/C=C/C1=C(C)CCCC1(C)C
[1]
  IC50: 65.3 µM
HeLa
  IC50: 33.5 µM
PC-3
  IC50: 25.3 µM
MCF7
  IC50: 55.4 µM
IMR-32
  IC50: 72.4 µM

## CC1=C(/C=C/C(=O)/C=C/c2ccccc2[N+](=O)[O-])C(C)(C)CCC1
[1]
  IC50: 44.9 µM
HeLa
  IC50: 36.1 µM
PC-3
  IC50: 9.5 µM
MCF7
  IC50: 10.1 µM
IMR-32
  IC50: 13.5 µM

## CC1=C(/C=C/C(=O)/C=C/c2ccc(C#N)cc2)C(C)(C)CCC1
[1]
  IC50: 45.6 µM
HeLa
  IC50: 22.2 µM
PC-3
  IC50: 11.9 µM
MCF7
  IC50: 13.2 µM
IMR-32
  IC50: 23.4 µM

## CO[C@@]12[C@H](COC(N)=O)C3=C(C(=O)C(C)=C(N)C3=O)N1C[C@@H]1N[C@@H]12 [MITOMYCIN]
HeLa
  IC50: 2 µM

## O=c1[nH]cc(F)c(=O)[nH]1 [FLUOROURACIL]
[1]
  IC50: 0.5 µM
IMR-32
  IC50: 1.3 µM

## CC[C@@]1(O)C(=O)OCc2c1cc1n(c2=O)Cc2cc3ccccc3nc2-1 [CAMPTOTHECIN]
CHO [2]
  Activity: 21.6%
CHO [3]
  Activity: 50.5%
CHO [4]
  viability at 10 µM: 74.8%
CHO [5]
  Activity: 1.2%
CHO [6]
  Activity: 2.4%

## CC1=C(/C=C/C(=O)/C=C/c2ccccc2C)C(C)(C)CCC1
[1]
  IC50: 41 µM
HeLa
  IC50: > 100 µM
PC-3
  IC50: 44.1 µM
MCF7
  IC50: 44.6 µM
IMR-32
  IC50: 63.2 µM

## CC1=C(/C=C/C(=O)/C=C/c2cccc3ccccc23)C(C)(C)CCC1
[1]
  IC50: > 100 µM
HeLa
  IC50: 65.4 µM
PC-3
  IC50: 56.4 µM
MCF7
  IC50: 53.2 µM
IMR-32
  IC50: 43.8 µM

## CC1=C(/C=C/C(=O)/C=C/c2ccc(Cl)c(Cl)c2)C(C)(C)CCC1
[1]
  IC50: > 100 µM
HeLa
  IC50: > 100 µM
PC-3
  IC50: 35.5 µM
MCF7
  IC50: 53.5 µM
IMR-32
  IC50: 72.4 µM

## CC1=C(/C=C/C(=O)/C=C/c2cccnc2)C(C)(C)CCC1
[1]
  IC50: 45.6 µM
HeLa
  IC50: 17.4 µM
PC-3
  IC50: 10.2 µM
MCF7
  IC50: 15.5 µM
IMR-32
  IC50: 25.3 µM

## CC1=C(/C=C/C(=O)/C=C/c2ccccc2Cl)C(C)(C)CCC1
[1]
  IC50: 54.2 µM
HeLa
  IC50: 21.8 µM
PC-3
  IC50: 11.3 µM
MCF7
  IC50: 54.6 µM
IMR-32
  IC50: 13.7 µM

## CC1=C(/C=C/C(=O)/C=C/c2ccccc2Br)C(C)(C)CCC1
[1]
  IC50: 16.3 µM
HeLa
  IC50: 57.9 µM
PC-3
  IC50: 11.4 µM
MCF7
  IC50: 20.7 µM
IMR-32
  IC50: 16.3 µM

## CC1=C(/C=C/C(=O)/C=C/c2ccc(Br)cc2)C(C)(C)CCC1
[1]
  IC50: 34.5 µM
HeLa
  IC50: 88.8 µM
PC-3
  IC50: 18.9 µM
MCF7
  IC50: 20.1 µM
IMR-32
  IC50: 10.4 µM

## COc1ccccc1/C=C/C(=O)/C=C/C1=C(C)CCCC1(C)C
[1]
  IC50: 38.9 µM
HeLa
  IC50: 88.2 µM
PC-3
  IC50: 14.2 µM
MCF7
  IC50: 13.4 µM
IMR-32
  IC50: 19.2 µM

## CC1=C(/C=C/C(=O)/C=C/c2ccoc2)C(C)(C)CCC1
[1]
  IC50: > 100 µM
HeLa
  IC50: 88.4 µM
PC-3
  IC50: 50.3 µM
MCF7
  IC50: 100 µM
IMR-32
  IC50: 56.8 µM

## CC1=C(/C=C/C(=O)/C=C/c2ccc(C)cc2)C(C)(C)CCC1
[1]
  IC50: 44.1 µM
HeLa
  IC50: 20.4 µM
PC-3
  IC50: 21.5 µM
MCF7
  IC50: 23.8 µM
IMR-32
  IC50: 19.2 µM

## CC1=C(/C=C/C(=O)/C=C/c2ccc([N+](=O)[O-])cc2)C(C)(C)CCC1
CHO [7]
  Activity: 30.5%
CHO [8]
  Activity: 1.1%
CHO [9]
  viability at 15 µM: 52.3%
CHO [10]
  Activity: 5.1%
CHO [2]
  Activity: 33.3%
CHO [3]
  Activity: 36%
[1]
  IC50: 55.5 µM
CHO [11]
  Activity: Active
CHO [4]
  viability at 10 µM: 59.5%
HeLa
  IC50: 28.7 µM
PC-3
  IC50: 1.9 µM
CHO [12]
  Activity: 39.1%
CHO [13]
  Activity: 48.1%
CHO [14]
  Activity: 7.5%
MCF7
  IC50: 5.5 µM
CHO [15]
  Activity: Active
CHO [5]
  Activity: 1.4%
IMR-32
  IC50: 3.2 µM
CHO [16]
  Activity: 0.8%
CHO [17]
  Activity: 19.4%
CHO [18]
  viability at 5 µM: 74.7%
CHO [6]
  Activity: 5.8%
CHO [19]
  Activity: Dose-dependent effect
  IC50: 10 µM
